This note sets out measurements from ChEMBL document CHEMBL1126346, “C-linked pyrazole biaryl tetrazoles as antagonists of angiotensin II” (1992).

Active and inactive are the calls of the source. The calls are words filed in the database; no cut-off is given here.

The target of assay [1] is T1, Type-1 angiotensin II receptor (Oryctolagus cuniculus) (UniProt P34976).
T1 sequence (whole entry): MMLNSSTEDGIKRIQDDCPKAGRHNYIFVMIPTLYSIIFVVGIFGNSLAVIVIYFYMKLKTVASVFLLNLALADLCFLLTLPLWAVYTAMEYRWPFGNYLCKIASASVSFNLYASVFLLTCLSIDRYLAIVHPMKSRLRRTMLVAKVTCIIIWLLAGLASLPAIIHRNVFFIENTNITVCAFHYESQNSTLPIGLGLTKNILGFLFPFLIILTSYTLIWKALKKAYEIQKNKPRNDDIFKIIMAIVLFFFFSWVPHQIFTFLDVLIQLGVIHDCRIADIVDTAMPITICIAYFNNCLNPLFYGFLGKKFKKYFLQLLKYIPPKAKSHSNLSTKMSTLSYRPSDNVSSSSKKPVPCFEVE
The experiment in a line: In vitro inhibition of ATII induced contractions of the isolated rabbit aorta.

The subject of assay [2] is Rattus norvegicus. The assay is described as follows: Effect on diastolic blood pressure of hypertensive rats 1 hour following 1 mg/kg p.o. administration. In kind it is functional, Artery. Conditions: route oral.
Assay [3] has as its system Rattus norvegicus. The experiment in a line: Effect on diastolic blood pressure of hypertensive rats 3 hours following 1 mg/kg p.o. administration. Conditions: route oral. Format: functional, Artery.
For assay [4], the system named is Rattus norvegicus. The assay is described as follows: Effect on diastolic blood pressure of hypertensive rats 24 hours following 1 mg/kg p.o. administration. Format: functional, Artery. Conditions: route oral.
Assay [5] relates to Rattus norvegicus. The experiment in a line: Effect on diastolic blood pressure of hypertensive rats 48 hours following 1 mg/kg p.o. administration. Format: functional, Artery. Conditions: route oral.
In assay [6] the test system is Rattus norvegicus. The assay is described as follows: Effect on diastolic blood pressure of hypertensive rats 5 hours following 1 mg/kg p.o. administration. Format: functional, Artery. Conditions: route oral.
In assay [7] the test system is Rattus norvegicus. The experiment in a line: Effect on diastolic blood pressure of hypertensive rats 7 hours following 1 mg/kg p.o. administration. In kind it is functional, Artery. Conditions: route oral.
Assay [8] concerns Rattus norvegicus. The experiment in a line: Effect on diastolic blood pressure of hypertensive rats immediately following 1 mg/kg p.o. administration. In kind it is functional, Artery. Conditions: route oral.
Assay [9] is filed under the species Rattus norvegicus. The experiment in a line: Effect on diastolic blood pressure of hypertensive rats; Inactive. In kind it is functional, organism-based. Conditions: Artery.

As to `CCCCc1c(Cc2ccc(-c3ccccc3-c3nn[nH]n3)cc2)c(C(=O)O)nn1CCCC`, the pKB in assay [1] came out at 8.

Take `CCCCc1nn(CC)c(C(=O)OCC)c1Cc1ccc(-c2ccccc2-c2nn[nH]n2)cc1`: the pKB in assay [1] was found to be 8.

Regarding `CCCCc1nn(CC2CC2)c(C(=O)O)c1Cc1ccc(-c2ccccc2-c2nn[nH]n2)cc1`, the pKB in [1] came out at 10.5. Moreover, the Blood pressure worked out at 145 mmHg in assay [2]; 115 mmHg in assay [3]; 97 mmHg in assay [4]; 130 mmHg in assay [5]; 95 mmHg in assay [6]; 95 mmHg in assay [7]. The compound further came in with a Blood pressure in assay [8] of 150 mmHg. Regarding `CCCCc1c(Cc2ccc(-c3ccccc3-c3nn[nH]n3)cc2)c(C(=O)O)nn1C(C)C`, in assay [1], the pKB came to 8. Still for that read-out and setting: under `CCCCc1nn(CC)c(CO)c1Cc1ccc(-c2ccccc2-c2nn[nH]n2)cc1` stands 8.

For `CCCCc1nn(CC(C)(C)C)c(C(=O)O)c1Cc1ccc(-c2ccccc2-c2nn[nH]n2)cc1`, the pKB in assay [1] amounted to 10.6. Turning to `CCCCc1nn(C(C)C)c(C(=O)O)c1Cc1ccc(-c2ccccc2-c2nn[nH]n2)cc1`, the pKB in assay [1] stood at 10. Same read-out and setting: under `CCCCc1c(Cc2ccc(-c3ccccc3-c3nn[nH]n3)cc2)c(COC)nn1CC(F)(F)F` stands 7; under `CCCCc1nn(CC(F)(F)F)c(COC)c1Cc1ccc(-c2ccccc2-c2nn[nH]n2)cc1`, 7; under `CCCCc1nn(CC(F)(F)F)c(C(=O)O)c1Cc1ccc(-c2ccccc2-c2nn[nH]n2)cc1`, 9.8.

`CCCCc1nn(CC)c(C(=O)O)c1Cc1ccc(-c2ccccc2C(=O)O)cc1` showed a negative logarithm of the KB (pKB) in assay [1] of 8. Regarding `CCCCc1nn(CC(C)C)c(C(=O)O)c1Cc1ccc(-c2ccccc2-c2nn[nH]n2)cc1`, the pKB in assay [1] was 11.

In turn, `CCCCc1nn(CCCC)c(C(=O)O)c1Cc1ccc(-c2ccccc2-c2nn[nH]n2)cc1` had a pKB in assay [1] of 10. Same read-out and setting: the value for `CCCCc1nn(CC)c(C(=O)NC)c1Cc1ccc(-c2ccccc2-c2nn[nH]n2)cc1` was 7.5; that for `CCCCc1nn(CC)c(C(=O)O)c1Cc1ccc(-c2ccccc2-c2nn[nH]n2)cc1` was 9.8.

`CCCCc1n[nH]c(C(=O)O)c1Cc1ccc(-c2ccccc2-c2nn[nH]n2)cc1` gave a negative logarithm of the KB (pKB) in assay [1] of 8.8. In turn, `CCCCc1nn(C2CCC2)c(C(=O)O)c1Cc1ccc(-c2ccccc2-c2nn[nH]n2)cc1` registered a pKB in assay [1] of 10.9. For the same compound, the Blood pressure result in assay [9] is “inactive”. In [1], `CCCCc1nn(C)c(C(=O)O)c1Cc1ccc(-c2ccccc2-c2nn[nH]n2)cc1` registered a pKB of 9.8. Still for that read-out and setting: the value for `CCCCc1nn(CC)c(C(=O)O)c1Cc1ccc(-c2ccccc2NS(=O)(=O)C(F)(F)F)cc1` was 8.

`CCCCc1c(Cc2ccc(-c3ccccc3-c3nn[nH]n3)cc2)c(C(=O)O)nn1CC(F)(F)F` displayed a pKB in [1] of 7.7. Same read-out and setting: under `CCCCc1nn(CCC)c(C(=O)O)c1Cc1ccc(-c2ccccc2-c2nn[nH]n2)cc1` stands 10.5.

A word on the pKB: it is −log10 of the KB, conventionally taken in molar units. High values mean a small KB, low ones a large KB.
